From PubChem BioAssay AID652155 (Sanford-Burnham Center for Chemical Genomics, 2013)
Active and inactive are the calls of the source.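 Rule for the calls: active = compounds with mean IC50 of 15 µM or lower in the worm heat shock reporter counterscreen; inactive = the rest.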

Tested on: C. elegans VP596 hsp-16.2 GFP/RFP heat-shock reporter
Assay: inhibitors of heat-driven hsp-16.2 GFP expression – whole organism, C. elegans VP596, GFP/RFP ratio, counter-screen for SKN-1 inhibitor project, SAR follow-up (AID 652155)

Q: For `CCOc1cc(CNC2CCCC2)ccc1OCc1ccc(F)cc1`, which IC50 is on record?
A: Its IC50 is > 64 µM (inactive).

Q: With `CCOc1cc(CNC2CCCC2)cc(Cl)c1OCc1ccc(Cl)cc1` as the compound, how does the IC50 read?
A: Its IC50 is > 64 µM (inactive).

Q: With `Cc1ccc(-c2csc(-c3cccnc3)n2)cc1` as the compound, how does the IC50 read?
A: Its IC50 is > 64 µM (inactive).

Q: `CCOc1cc(CNC2CCCCC2)cc(Cl)c1OCc1ccc(F)cc1` was tested. Which IC50 did it give?
A: The IC50 was > 64 µM (inactive).

Q: How did the IC50 turn out when `c1ccc(-c2csc(-c3ccncc3)n2)cc1` was run?
A: Its IC50 is > 64 µM (inactive).

Q: `COc1ccc(-c2csc(-c3ccncc3)n2)cc1` was tested. Which IC50 did it give?
A: The IC50 was > 64 µM (inactive).

Q: `CCOc1cc(CNC2CCCC2)cc(Cl)c1OCc1ccccc1Cl` was tested. Which IC50 did it give?
A: Its IC50 is > 64 µM (inactive).

Q: With `Fc1ccc(-c2csc(-c3ccncc3)n2)cc1` as the compound, how does the IC50 read?
A: Its IC50 is > 64 µM (inactive).

Q: How did the IC50 turn out when `Clc1ccc(-c2csc(-c3ccncc3)n2)cc1` was run?
A: The IC50 was > 64 µM (inactive).

Q: Which IC50 does the source give for `CCOc1cc(CNC2CCC2)cc(Cl)c1OCc1ccc(F)cc1` here?
A: The IC50 was > 64 µM (inactive).

Q: Which IC50 does the source give for `CCOc1cc(CNC2CCCC2)cc(Cl)c1OCc1ccccc1F` here?
A: Its IC50 is > 64 µM (inactive).

Q: `CCOc1cc(CNc2ccccc2)cc(Cl)c1OCc1ccc(F)cc1` was tested. Which IC50 did it give?
A: The IC50 was > 64 µM (inactive).

Q: With `CCOc1cc(C(=O)NC2CCCC2)cc(Cl)c1OCc1ccc(F)cc1` as the compound, how does the IC50 read?
A: Its IC50 is > 64 µM (inactive).

Q: `COc1cc(CNC2CCCC2)cc(Cl)c1OCc1ccc(F)cc1` was tested. Which IC50 did it give?
A: The IC50 was > 64 µM (inactive).

Q: For `CCOc1cc(CNCc2ccccc2)cc(Cl)c1OCc1ccc(F)cc1`, which IC50 is on record?
A: Its IC50 is > 64 µM (inactive).

Q: With `CCOc1cc(CNC(C)C)cc(Cl)c1OCc1ccc(F)cc1` as the compound, how does the IC50 read?
A: The IC50 was > 64 µM (inactive).

Q: With `CCOc1cc(CNC2CCCC2)cc(Cl)c1OCc1ccc(OC)cc1` as the compound, how does the IC50 read?
A: The IC50 was > 64 µM (inactive).

Q: `CCOc1cc(CNC2CC2)cc(Cl)c1OCc1ccc(F)cc1` was tested. Which IC50 did it give?
A: The IC50 was > 64 µM (inactive).

Q: For `Fc1ccc(COc2ccc(CNC3CCCC3)cc2Cl)cc1`, which IC50 is on record?
A: The IC50 was > 64 µM (inactive).

Q: How did the IC50 turn out when `CCOc1cc(CNC2CCCC2)cc(Cl)c1OCc1ccc(C)cc1` was run?
A: Its IC50 is > 64 µM (inactive).

Q: `Clc1ccc(-c2csc(-c3cccnc3)n2)cc1` was tested. Which IC50 did it give?
A: The IC50 was > 64 µM (inactive).

Q: For `COc1ccc(-c2csc(-c3cccnc3)n2)cc1`, which IC50 is on record?
A: Its IC50 is > 64 µM (inactive).

Q: How did the IC50 turn out when `CCOc1cc(CNC2CCCC2)cc(Cl)c1OCc1cccc(F)c1` was run?
A: The IC50 was > 64 µM (inactive).

Q: Which IC50 does the source give for `Fc1ccc(-c2csc(-c3cccnc3)n2)cc1` here?
A: Its IC50 is > 64 µM (inactive).

Q: For `Cc1ccc(-c2csc(-c3ccncc3)n2)cc1`, which IC50 is on record?
A: The IC50 was > 64 µM (inactive).

Q: How did the IC50 turn out when `CCOc1cc(CNC2CCCC2)cc(Cl)c1OC` was run?
A: The IC50 was > 64 µM (inactive).

Q: With `CCOc1cc(CNC2CCCC2)cc(Cl)c1OCc1ccc(F)cc1` as the compound, how does the IC50 read?
A: Its IC50 is > 64 µM (inactive).

Q: Which IC50 does the source give for `c1ccc(-c2csc(-c3cccnc3)n2)cc1` here?
A: Its IC50 is > 64 µM (inactive).
